Test results as given in patent US20070248694A1, “Anti-inflammatory properties of a standardized extract from Euphorbia hirta (PM-251) activity and for treating conditions of inflammation” (PhytoMyco Research Corporation, priority 2006, published 2007).

Tests used:
Type in all cases: in vivo, Wister strain - Albino rats
[1] = system: Carrageenin induced rat paw edema; test: Carrageenin induced rat paw edema; details: 100 mg/kbw oral single dose
Method: Dose Levels • Control: One ml of 1% gum acacia • Standard: 100 mg/kbw (kilogram body weight) in acute models and sub-acute models. • T1:100 mg/kbw and T2:200 mg/kbw in Carrageenin and Turpentine models and T1: […] All drugs (dose) were given only once a day. 2. Method of performance study • Main assays: The test article, the standard and control were administered: a. Carrageenin induced rat paw edema: The respective drug was administered in single dose through mouth 1 hour before the administration of phlogistic agent. The method used comprises of the study of the acute inflammatory reaction induced by injecting the phlogistic agent carrageenin into the subplantar surface of the right hindpaw of the rat. […] Lesser the mean paw volume more was the anti-inflammatory potential and vice versa. • b. Turpentine induced arthritis: The respective drug was administered in single dose through mouth 1 hour before the administration of phlogistic agent. This is one of the commonly employed models to induce arthritis in the rat; 0.01 ml turpentine was injected to the right knee joint. The maximum diameter of the right knee joint was measured at ‘0’ hour and at the end of ‘4’ hours after the injection with the help of screw gauge and the difference between ‘0’ hour and ‘4’ hour reading gave the actual arthritis. […]

[2] = system: Turpentine induced arthritis; test: Turpentine induced arthritis; details: 100 mg/kbw oral single dose
Method: Dose Levels • Control: One ml of 1% gum acacia • Standard: 100 mg/kbw (kilogram body weight) in acute models and sub-acute models. • T1:100 mg/kbw and T2:200 mg/kbw in Carrageenin and Turpentine models and T1: […] All drugs (dose) were given only once a day. 2. Method of performance study • Main assays: The test article, the standard and control were administered: a. Carrageenin induced rat paw edema: The respective drug was administered in single dose through mouth 1 hour before the administration of phlogistic agent. The method used comprises of the study of the acute inflammatory reaction induced by injecting the phlogistic agent carrageenin into the subplantar surface of the right hindpaw of the rat. […] Lesser the mean paw volume more was the anti-inflammatory potential and vice versa. • b. Turpentine induced arthritis: The respective drug was administered in single dose through mouth 1 hour before the administration of phlogistic agent. This is one of the commonly employed models to induce arthritis in the rat; 0.01 ml turpentine was injected to the right knee joint. The maximum diameter of the right knee joint was measured at ‘0’ hour and at the end of ‘4’ hours after the injection with the help of screw gauge and the difference between ‘0’ hour and ‘4’ hour reading gave the actual arthritis. Lesser the mean diameter right knee joint more the anti-inflammatory potential and vice versa. • c. Formalin induced experimental peritonitis: The respective drug was administered in single dose through mouth 1 hour before the administration of phlogistic agent by injecting 1 ml of 1% formalin in to the peritoneal cavity. […] Lesser the mean exudates more is the anti-inflammatory potential and vice versa. • d. Cotton wool pellet induced granuloma: The respective drug was administered by mouth in single dose one hour prior to the cotton pellet implantation on the first day and subsequently every day for next five days. The extent of formation of foreign body granuloma (granulation tissue) is the main criterion for evaluating anti-inflammatory activity. […]

[3] = system: Formalin induced peritonitis; test: Formalin induced experimental peritonitis; details: 100 mg/kbw oral single dose
Method: (§1) Dose Levels • Control: One ml of 1% gum acacia • Standard: 100 mg/kbw (kilogram body weight) in acute models and sub-acute models. • T1:100 mg/kbw and T2:200 mg/kbw in Carrageenin and Turpentine models and T1: 200 mg/kbw and T2:400 mg/kbw in Cotton pellet granuloma and Formalin induced arthritis model. […] All drugs (dose) were given only once a day. 2. Method of performance study • Main assays: The test article, the standard and control were administered: a. Carrageenin induced rat paw edema: The respective drug was administered in single dose through mouth 1 hour before the administration of phlogistic agent. The method used comprises of the study of the acute inflammatory reaction induced by injecting the phlogistic agent carrageenin into the subplantar surface of the right hindpaw of the rat. […] Lesser the mean paw volume more was the anti-inflammatory potential and vice versa. • b. Turpentine induced arthritis: The respective drug was administered in single dose through mouth 1 hour before the administration of phlogistic agent. […] The maximum diameter of the right knee joint was measured at ‘0’ hour and at the end of ‘4’ hours after the injection with the help of screw gauge and the difference between ‘0’ hour and ‘4’ hour reading gave the actual arthritis. […]

[4] = system: Cotton pellet induced granuloma; test: Cotton wool pellet induced granuloma; details: 100 mg/kbw oral once daily
Method: as §1

For `COc1ccc2c(c1)c(CC(=O)O)c(C)n2C(=O)c1ccc(Cl)cc1` [Indomethacin], the “Inhibitory Potency Values” [1] was 3.98, the “Mean volume (in ml.) (±) SEM” value ([1]; paw edema volume, difference 0 h to 4 h) was 0.88 ± 0.52 mL and the “% inhibition with respect to control” value [2] was 84.95%. For the same molecule, the “Inhibitory Potency Values” [2] was 0.85, the “Mean volume (in mm.) (±) SEM” value ([2]; right knee joint diameter, difference 0 h to 4 h) was 1.55 ± 0.19 mm and the “Inhibitory Potency Values” [3] was 1.38. The “Mean volume (in ml.) (±) SEM” value ([3]; peritoneal exudate volume after 4 hours) was 0.57 ± 0.14 mL, the “Inhibitory Potency Values” [4] was 2.38 and the “Mean volume (in mg.) (±)” value ([4]; granulation tissue weight on dried cotton pellet, sixth day) was 6.54 ± 0.36 mg.
